# Source: PubChem BioAssay (NCI)
#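 GI50: concentration for 50% inhibition of growth. The concentration for full growth arrest is given as TGI.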
# Legend:
# Test in all cases: NCI-60 cell line screen, 384-well format
# DU-145 prostate = tested on: DU-145 prostate
# NCI-H522 lung = tested on: NCI-H522 lung
# NCI-H23 lung = tested on: NCI-H23 lung
# 786-0 renal = tested on: 786-0 renal
# MDA-MB-231 breast = tested on: MDA-MB-231 breast
# MDA-MB-468 breast = tested on: MDA-MB-468 breast
# LOX IMVI melanoma = tested on: LOX IMVI melanoma
# COLO 205 colon = tested on: COLO 205 colon
# SF-295 CNS = tested on: SF-295 CNS
# MOLT-4 leukemia = tested on: MOLT-4 leukemia
# HCC-2998 colon = tested on: HCC-2998 colon
# SN12C renal = tested on: SN12C renal
# CAKI-1 renal = tested on: CAKI-1 renal
# BT-549 breast = tested on: BT-549 breast
# UACC-257 melanoma = tested on: UACC-257 melanoma
# RPMI-8226 leukemia = tested on: RPMI-8226 leukemia
# SF-539 CNS = tested on: SF-539 CNS
# SW-620 colon = tested on: SW-620 colon
# SNB-19 CNS = tested on: SNB-19 CNS
# NCI-H226 lung = tested on: NCI-H226 lung
# HOP-62 NSCLC = tested on: HOP-62 NSCLC
# KM12 colon = tested on: KM12 colon
# SK-OV-3 ovarian = tested on: SK-OV-3 ovarian
# OVCAR-3 ovarian = tested on: OVCAR-3 ovarian
# T-47D breast = tested on: T-47D breast
# HCT-15 colon = tested on: HCT-15 colon
# A498 renal = tested on: A498 renal
# EKVX NSCLC = tested on: EKVX NSCLC
# SR leukemia = tested on: SR leukemia
# A549 NSCLC = tested on: A549 NSCLC
# SF-268 CNS = tested on: SF-268 CNS
# MDA-MB-435 melanoma = tested on: MDA-MB-435 melanoma
# HS 578T breast = tested on: HS 578T breast
# OVCAR-8 ovarian = tested on: OVCAR-8 ovarian
# K-562 leukemia = tested on: K-562 leukemia
# TK-10 renal = tested on: TK-10 renal
# MCF7 breast = tested on: MCF7 breast
# U251 glioblastoma = tested on: U251 glioblastoma
# HOP-92 NSCLC = tested on: HOP-92 NSCLC
# UO-31 renal = tested on: UO-31 renal
# OVCAR-4 ovarian = tested on: OVCAR-4 ovarian
# HT29 colon = tested on: HT29 colon
# HL-60(TB) leukemia = tested on: HL-60(TB) leukemia
# NCI-H322M lung = tested on: NCI-H322M lung
# SK-MEL-28 melanoma = tested on: SK-MEL-28 melanoma
# OVCAR-5 ovarian = tested on: OVCAR-5 ovarian
# M14 melanoma = tested on: M14 melanoma
# SNB-75 CNS = tested on: SNB-75 CNS
# CCRF-CEM leukemia = tested on: CCRF-CEM leukemia
# UACC-62 melanoma = tested on: UACC-62 melanoma
# PC-3 prostate = tested on: PC-3 prostate
# NCI-H460 NSCLC = tested on: NCI-H460 NSCLC
# ACHN renal = tested on: ACHN renal
# NCI/ADR-RES ovarian = tested on: NCI/ADR-RES ovarian
# MALME-3M melanoma = tested on: MALME-3M melanoma
# SK-MEL-5 melanoma = tested on: SK-MEL-5 melanoma
structure (smiles),measurement,setting,value
S=C(NCc1ccc2c(c1)OCO2)N1CCN(c2ncnc3c2oc2ccccc23)CC1,GI50,DU-145 prostate,> 100 µM
same,TGI,DU-145 prostate,> 100 µM
same,GI50,NCI-H522 lung,35.4 µM
same,TGI,NCI-H522 lung,> 100 µM
same,GI50,NCI-H23 lung,1870 nM
same,TGI,NCI-H23 lung,> 100 µM
same,GI50,786-0 renal,80.6 µM
same,TGI,786-0 renal,> 100 µM
same,GI50,MDA-MB-231 breast,6.31 µM
same,TGI,MDA-MB-231 breast,> 100 µM
same,GI50,MDA-MB-468 breast,673 nM
same,TGI,MDA-MB-468 breast,3.32 µM
same,GI50,LOX IMVI melanoma,3.02 µM
same,TGI,LOX IMVI melanoma,> 100 µM
same,GI50,COLO 205 colon,> 100 µM
same,TGI,COLO 205 colon,> 100 µM
same,GI50,SF-295 CNS,> 100 µM
same,TGI,SF-295 CNS,> 100 µM
same,GI50,MOLT-4 leukemia,1480 nM
same,TGI,MOLT-4 leukemia,4.8 µM
same,GI50,HCC-2998 colon,21.7 µM
same,TGI,HCC-2998 colon,> 100 µM
same,GI50,SN12C renal,> 100 µM
same,TGI,SN12C renal,> 100 µM
same,GI50,CAKI-1 renal,> 100 µM
same,TGI,CAKI-1 renal,> 100 µM
same,GI50,BT-549 breast,7.53 µM
same,TGI,BT-549 breast,> 100 µM
same,GI50,UACC-257 melanoma,6.23 µM
same,TGI,UACC-257 melanoma,> 100 µM
same,GI50,RPMI-8226 leukemia,1790 nM
same,TGI,RPMI-8226 leukemia,89.1 µM
same,GI50,SF-539 CNS,> 100 µM
same,TGI,SF-539 CNS,> 100 µM
same,GI50,SW-620 colon,> 100 µM
same,TGI,SW-620 colon,> 100 µM
same,GI50,SNB-19 CNS,> 100 µM
same,TGI,SNB-19 CNS,> 100 µM
same,GI50,NCI-H226 lung,23.6 µM
same,TGI,NCI-H226 lung,> 100 µM
same,GI50,HOP-62 NSCLC,2780 nM
same,TGI,HOP-62 NSCLC,> 100 µM
same,GI50,KM12 colon,> 100 µM
same,TGI,KM12 colon,> 100 µM
same,GI50,SK-OV-3 ovarian,6.63 µM
same,TGI,SK-OV-3 ovarian,> 100 µM
same,GI50,OVCAR-3 ovarian,> 100 µM
same,TGI,OVCAR-3 ovarian,> 100 µM
same,GI50,T-47D breast,593 nM
same,TGI,T-47D breast,8.23 µM
same,GI50,HCT-15 colon,33.2 µM
same,TGI,HCT-15 colon,> 100 µM
same,GI50,A498 renal,2950 nM
same,TGI,A498 renal,> 100 µM
same,GI50,EKVX NSCLC,6.12 µM
same,TGI,EKVX NSCLC,> 100 µM
same,GI50,SR leukemia,490 nM
same,TGI,SR leukemia,3.36 µM
same,GI50,A549 NSCLC,9.14 µM
same,TGI,A549 NSCLC,> 100 µM
same,GI50,SF-268 CNS,> 100 µM
same,TGI,SF-268 CNS,> 100 µM
same,GI50,MDA-MB-435 melanoma,72.4 µM
same,TGI,MDA-MB-435 melanoma,> 100 µM
same,GI50,HS 578T breast,23.2 µM
same,TGI,HS 578T breast,> 100 µM
same,GI50,OVCAR-8 ovarian,3.04 µM
same,TGI,OVCAR-8 ovarian,> 100 µM
same,GI50,K-562 leukemia,1620 nM
same,TGI,K-562 leukemia,> 100 µM
same,GI50,TK-10 renal,71.6 µM
same,TGI,TK-10 renal,> 100 µM
same,GI50,MCF7 breast,3.01 µM
same,TGI,MCF7 breast,> 100 µM
same,GI50,U251 glioblastoma,8.72 µM
same,TGI,U251 glioblastoma,> 100 µM
same,GI50,HOP-92 NSCLC,62.7 µM
same,TGI,HOP-92 NSCLC,> 100 µM
same,GI50,UO-31 renal,15.9 µM
same,TGI,UO-31 renal,89 µM
same,GI50,OVCAR-4 ovarian,5.77 µM
same,TGI,OVCAR-4 ovarian,> 100 µM
same,GI50,HT29 colon,> 100 µM
same,TGI,HT29 colon,> 100 µM
same,GI50,HL-60(TB) leukemia,3.18 µM
same,TGI,HL-60(TB) leukemia,30.8 µM
same,GI50,NCI-H322M lung,2550 nM
same,TGI,NCI-H322M lung,> 100 µM
same,GI50,SK-MEL-28 melanoma,> 100 µM
same,TGI,SK-MEL-28 melanoma,> 100 µM
same,GI50,OVCAR-5 ovarian,> 100 µM
same,TGI,OVCAR-5 ovarian,> 100 µM
same,GI50,M14 melanoma,> 100 µM
same,TGI,M14 melanoma,> 100 µM
same,GI50,SNB-75 CNS,> 100 µM
same,TGI,SNB-75 CNS,> 100 µM
same,GI50,CCRF-CEM leukemia,917 nM
same,TGI,CCRF-CEM leukemia,3.63 µM
same,GI50,UACC-62 melanoma,> 100 µM
same,TGI,UACC-62 melanoma,> 100 µM
same,GI50,PC-3 prostate,67.6 µM
same,TGI,PC-3 prostate,> 100 µM
same,GI50,NCI-H460 NSCLC,2940 nM
same,TGI,NCI-H460 NSCLC,9.25 µM
same,GI50,ACHN renal,> 100 µM
same,TGI,ACHN renal,> 100 µM
same,GI50,NCI/ADR-RES ovarian,1360 nM
same,TGI,NCI/ADR-RES ovarian,6.54 µM
same,GI50,MALME-3M melanoma,> 100 µM
same,TGI,MALME-3M melanoma,> 100 µM
same,GI50,SK-MEL-5 melanoma,1060 nM
same,TGI,SK-MEL-5 melanoma,2690 nM
